What was measured:
Settings in all cases: 72 h
HepG2 [1] = assay: cell viability relative to DMSO; higher = less toxic
U2OS [2] = assay: as above
Vero E6 [3] = assay: as above
Caco-2 [4] = assay: as above
Calu-3 [5] = assay: as above
HepG2 [6] = assay: drug sensitivity score (DSS) for viability; higher = more toxic; extreme values may be limits of the assay
U2OS [7] = assay: as above
Vero E6 [8] = assay: as above
Caco-2 [9] = assay: as above
Calu-3 [10] = assay: as above
HepG2 [11] = assay: relative viability EC50 (midpoint between 100% and the lowest measured viability); higher = less toxic
U2OS [12] = assay: as above
Vero E6 [13] = assay: as above
Caco-2 [14] = assay: as above
Calu-3 [15] = assay: as above

| SMILES | cell viability (HepG2 [1]; 1 nM) | cell viability (HepG2 [1]; 10 nM) | cell viability (HepG2 [1]; 100 nM) | cell viability (HepG2 [1]; 1000 nM) | cell viability (HepG2 [1]; 10000 nM) | cell viability (U2OS [2]; 1 nM) | cell viability (U2OS [2]; 10 nM) | cell viability (U2OS [2]; 100 nM) | cell viability (U2OS [2]; 1000 nM) | cell viability (U2OS [2]; 10000 nM) | cell viability (Vero E6 [3]; 1 nM) | cell viability (Vero E6 [3]; 10 nM) | cell viability (Vero E6 [3]; 100 nM) | cell viability (Vero E6 [3]; 1000 nM) | cell viability (Vero E6 [3]; 10000 nM) | cell viability (Caco-2 [4]; 1 nM) | cell viability (Caco-2 [4]; 10 nM) | cell viability (Caco-2 [4]; 100 nM) | cell viability (Caco-2 [4]; 1000 nM) | cell viability (Caco-2 [4]; 10000 nM) | cell viability (Calu-3 [5]; 1 nM) | cell viability (Calu-3 [5]; 10 nM) | cell viability (Calu-3 [5]; 100 nM) | cell viability (Calu-3 [5]; 1000 nM) | cell viability (Calu-3 [5]; 10000 nM) | drug sensitivity score (HepG2 [6]) | drug sensitivity score (U2OS [7]) | drug sensitivity score (Vero E6 [8]) | drug sensitivity score (Caco-2 [9]) | drug sensitivity score (Calu-3 [10]) | relative viability EC50 (HepG2 [11]) | relative viability EC50 (U2OS [12]) | relative viability EC50 (Vero E6 [13]) | relative viability EC50 (Caco-2 [14]) | relative viability EC50 (Calu-3 [15]) |
| --- | --- | --- | --- | --- | --- | --- | --- | --- | --- | --- | --- | --- | --- | --- | --- | --- | --- | --- | --- | --- | --- | --- | --- | --- | --- | --- | --- | --- | --- | --- | --- | --- | --- | --- | --- |
| CC(C)(C)NS(=O)(=O)c1cncc(-c2cc(F)c3nc(N)nn3c2)c1 | 94.7% | 106% | 90.7% | 101% | 105% | 98.5% | 92.5% | 97.9% | 95.8% | 95.9% | 93.5% | 99.3% | 94% | 96.3% | 100% | 95.6% | 91.8% | 106% | 87.7% | 107% | 96.1% | 82.5% | 95.2% | 84.2% | 97.1% | 0 | 0 | 0 | 0 | 0 | > 10 µM | > 10 µM | > 10 µM | > 10 µM | > 10 µM |
| CC(C)(N)c1nc(-c2ccc(OC(F)(F)F)cc2)c[nH]1 | 96% | 107% | 101% | 117% | 104% | 98.2% | 94.1% | 96.5% | 95.6% | 95.4% | 95.9% | 97.7% | 94.6% | 94.9% | 107% | 95.8% | 96.5% | 91.3% | 92% | 88% | 107% | 102% | 90.1% | 105% | 113% | 0 | 0 | 0 | 0.1 | 0 | > 10 µM | > 10 µM | > 10 µM | > 10 µM | > 10 µM |
| CC(C)C1=C2[C@H]3CC[C@@H]4[C@@]5(C)CC[C@H](OC(=O)CC(C)(C)C(=O)O)C(C)(C)[C@@H]5CC[C@@]4(C)[C@]3(C)CC[C@@]2([C@@H](O)CN(CCN(C)C)Cc2ccc(Cl)cc2)CC1=O | 96.7% | 105% | 100% | 99.6% | 95.4% | 95.3% | 97.8% | 94.3% | 94.9% | 94.2% | 102% | 106% | 106% | 99.5% | 105% | 96.3% | 98.7% | 97.7% | 100% | 97.2% | 95.7% | 91.8% | 106% | 104% | 105% | 0 | 0 | 0 | 0 | 0 | > 10 µM | > 10 µM | > 10 µM | > 10 µM | > 10 µM |
| CCC(CC)Nc1cc(C)nc(Oc2c(C)cc(C)cc2C)c1C | 94.9% | 104% | 93.1% | 108% | 103% | 104% | 95.7% | 102% | 98.5% | 97% | 96.8% | 96.1% | 90.1% | 94.3% | 109% | 90.2% | 96.6% | 101% | 99.9% | 100% | 94.3% | 94.5% | 98.6% | 96.5% | 100% | 0 | 0 | 0 | 0 | 0 | > 10 µM | > 10 µM | > 10 µM | > 10 µM | > 10 µM |
| CCCCOc1c(C(=O)c2c(F)cc(C)cc2F)c[nH]c2nncc1-2 | 96.7% | 99.8% | 95.1% | 81.4% | 80.8% | 98% | 101% | 102% | 113% | 95.6% | 102% | 97.4% | 94.1% | 84.5% | 84.9% | 104% | 102% | 94% | 82.9% | 77.7% | 94.9% | 86.1% | 71.1% | 60.7% | 89.4% | 2.9 | 0 | 1.6 | 2.7 | 0 | > 10 µM | > 10 µM | > 10 µM | > 10 µM | > 10 µM |
| CCCCn1c(-c2ccccc2)nc(-c2ccccc2)c1CN(Cc1ccc2c(c1)OCO2)Cc1ccc2c(c1)OCO2 | 102% | 102% | 96.3% | 95.5% | 89.4% | 95.8% | 97.6% | 91.4% | 94% | 85.6% | 106% | 101% | 100% | 101% | 97.7% | 94.2% | 105% | 95.1% | 92.7% | 77.5% | 107% | 102% | 107% | 101% | 96.7% | 0 | 0.2 | 0 | 1.2 | 0 | > 10 µM | > 10 µM | > 10 µM | > 10 µM | > 10 µM |
| CN(C)c1cccc(-c2c3c(=O)n(-c4ccccc4Cl)[nH]c3cc(=O)n2C)c1 | 99.2% | 104% | 94.2% | 97.2% | 87.6% | 99.8% | 96.6% | 101% | 95.2% | 93.7% | 101% | 104% | 99.6% | 102% | 104% | 100% | 98.3% | 101% | 93.1% | 84.6% | 89.9% | 91.3% | 100% | 97.7% | 92.6% | 0 | 0 | 0 | 0.8 | 0 | > 10 µM | > 10 µM | > 10 µM | > 10 µM | > 10 µM |
| COc1c(C)c(C(=O)c2ccc(N)c(C(=O)O)c2)n2ccccc12 | 100% | 108% | 101% | 93.4% | 119% | 99.9% | 99.2% | 96.9% | 98.9% | 90.4% | 99.9% | 98.7% | 99.4% | 100% | 106% | 89.7% | 88.7% | 87.1% | 100% | 106% | 96.6% | 102% | 96% | 98.2% | 103% | 0 | 0 | 0 | 0 | 0 | > 10 µM | > 10 µM | > 10 µM | > 10 µM | > 10 µM |
| COc1cc(N)c(Cl)cc1C(=O)CCC1CCN(CCNS(C)(=O)=O)CC1 | 100% | 100% | 98.2% | 89% | 95.5% | 92.6% | 101% | 94.2% | 99.2% | 92.6% | 99.7% | 101% | 100% | 93.9% | 98.3% | 95.1% | 97.3% | 95.5% | 92.3% | 92.3% | 99.6% | 92.6% | 88.3% | 99.1% | 95.9% | 0.3 | 0 | 0 | 0 | 0 | > 10 µM | > 10 µM | > 10 µM | > 10 µM | > 10 µM |
| COc1ccccc1CN[C@H]1CCCN[C@H]1c1ccccc1 | 94.2% | 103% | 91.1% | 99.6% | 94.2% | 99% | 94.6% | 96.2% | 93.1% | 97.4% | 101% | 103% | 98% | 105% | 92.1% | 107% | 92.7% | 109% | 98.9% | 104% | 93.7% | 93.6% | 93.7% | 104% | 98.7% | 0 | 0 | 0 | 0 | 0 | > 10 µM | > 10 µM | > 10 µM | > 10 µM | > 10 µM |
| Cn1ccc2cc(NC(=O)Nc3cccnc3)ccc21 | 91.5% | 102% | 92.3% | 95.8% | 97.2% | 105% | 98.8% | 101% | 97.1% | 100% | 105% | 102% | 103% | 97.7% | 103% | 100% | 97.9% | 88.7% | 84.5% | 95.8% | 108% | 97.6% | 98.1% | 94.9% | 98% | 0 | 0 | 0 | 0.2 | 0 | > 10 µM | > 10 µM | > 10 µM | > 10 µM | > 10 µM |

Reference: the supplement of paper PMC13380429
